Test results taken from patent publication EP0970046B1, “N-HYDROXY-2-(ALKYL, ARYL, OR HETEROARYL SULFANYL, SULFINYL OR SULFONYL)-3-SUBSTITUTED ALKYL, ARYL OR HETEROARYLAMIDES AS MATRIX METALLOPROTEINASE INHIBITORS” (Wyeth Holdings Corporation, priority 1997, dated 1998).

Target: MMP 13 (Homo sapiens, UniProt P45452)
Assay: MMP 13 inhibition (HTS; method not described)
Type: biochemical
Details: read-out: MMP 13 % inhibition (HTS); HTS

| inhibition [%] | Compound |
| --- | --- |
| 11 | CCCCCCC(C(=O)NO)S(=O)(=O)c1cccc2cccnc12 (centres unmarked) [Example 196, 2-(Quinoline-8-sulfonyl)-octanoic acid hydroxyamide] |

Same assay, conditions: read-out: MMP 13 % inhibition at 36 nM (HTS); 36 nM, HTS

| inhibition at 0.036 µM [%] | Compound |
| --- | --- |
| 22 | CCCCCCC(C(=O)NO)S(=O)(=O)c1ccc(OS(=O)(=O)c2ccccc2[N+](=O)[O-])cc1 (centres unmarked) [Example 238, 2-Nitro-benzenesulfonic acid 4-(1-hydroxycarbamoyl-heptylsulfonyl)-hydroxyamide] |
| -18 | CCCCCCC(C(=O)NO)S(=O)(=O)c1cccc2cccnc12 (centres unmarked) [Example 196, 2-(Quinoline-8-sulfonyl)-octanoic acid hydroxyamide] |
| 28 | CCCCCCC(Sc1nc2ccccc2o1)C(=O)NO (centres unmarked) [Example 169, 2-(2-Benzooxazol-2-ylsulfanyl)-octanoic acid hydroxyamide] |

Same assay, conditions: read-out: MMP 13 % inhibition at 0.2 µM (HTS); 0.2 µM, HTS

| inhibition at 0.2 µM [%] | Compound |
| --- | --- |
| 79 | O=C(CCC(C(=O)NO)[S+]([O-])c1ccc(Br)cc1)NO (centres unmarked) [Example 135, 4-Hydroxycarbamoyl-4-(4-bromo-benzenesulfinyl)-butyric acid hydroxyamide] |
| 31 | N=C(N)NCCCC(Sc1cccc(F)c1)C(=O)NO (centres unmarked) [Example 155, 2-(3-fluorophenylsulfanyl)-5-guanidino-pentanoic acid hydroxyamide] |

| Compound | inhibition at 0.2 µM [%] |
| --- | --- |
| O=C(NO)C(Cc1cnc[nH]1)Sc1ccccc1Br (centres unmarked) [Example 152, 2-(2-bromo-benzenesulfanyl)-N-hydroxy-3-(3H-imidazol-4-yl)-propionamide] | 9 |

Target: T1, TACE (Homo sapiens, UniProt P78536)
T1 construct: purchased Immunex
T1 sequence (P78536 215-824): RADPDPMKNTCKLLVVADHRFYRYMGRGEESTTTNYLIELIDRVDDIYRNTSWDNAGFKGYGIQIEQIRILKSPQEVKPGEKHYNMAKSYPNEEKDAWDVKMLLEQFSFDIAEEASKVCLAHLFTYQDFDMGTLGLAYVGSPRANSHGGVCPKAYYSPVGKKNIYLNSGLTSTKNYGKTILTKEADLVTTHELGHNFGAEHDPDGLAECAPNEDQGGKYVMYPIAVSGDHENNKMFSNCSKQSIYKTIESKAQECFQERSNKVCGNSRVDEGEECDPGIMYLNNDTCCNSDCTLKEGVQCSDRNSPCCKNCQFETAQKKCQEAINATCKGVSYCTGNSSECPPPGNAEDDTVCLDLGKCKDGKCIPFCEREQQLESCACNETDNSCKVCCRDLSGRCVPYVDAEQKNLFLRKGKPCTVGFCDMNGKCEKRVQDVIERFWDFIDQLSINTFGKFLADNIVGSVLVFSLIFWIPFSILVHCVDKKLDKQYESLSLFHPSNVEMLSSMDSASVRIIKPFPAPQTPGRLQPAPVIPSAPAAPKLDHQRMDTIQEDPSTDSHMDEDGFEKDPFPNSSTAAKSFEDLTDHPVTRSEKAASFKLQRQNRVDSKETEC
Assay: Procedure for Measuring TACE Inhibition
Type: biochemical
Details: 1 µM; Examples 110-168
Method: Using 96-well black microtiter plates, each well receives a solution composed of 10 µL TACE (Immunex, final concentration 1µg/mL), 70µL Tris buffer, pH 7.4 containing 10% glycerol (final concentration 10 mM), and 10 µL of test compound solution in DMSO (final concentration 1µM, DMSO concentration <1%) and incubated for 10 minutes at room temperature. The reaction is initiated by addition of a fluorescent peptidyl substrate (final concentration 100 µM) to each well and then shaking on a shaker for 5 sec. The reaction is read (excitation 340 nm, emission 420 nm) for 10 min. and the increase in fluorescence over time is plotted as a linear line. The slope of the line is calculated and represents the reaction rate. The linearity of the reaction rate is confirmed (r^2 >0.85). The mean (x±sem) of the control rate is calculated and compared for statistical significance (p<0.05) with drug-treated rates using Dunnett's multiple comparison test.

| Compound | TACE % inhibition at 1 µM [%] |
| --- | --- |
| (1-Hydroxycarbamoyl-propane-1-sulfonyl)-acetic acid hydroxyamide [Example 120] | 19.9 |

Same assay, conditions: 1 µM; Examples 169-240

| Compound | TACE % inhibition at 1 µM [%] |
| --- | --- |
| CCCCCCC(Sc1ccc(OCCN2CCNCC2)cc1)C(=O)NO (centres unmarked) [Example 201, 2-[4-(2-Piperazine-1-yl-ethoxy)-benzenesulfanyl]-octanoic acid hydroxyamide] | 50.9 |
| CCCCCCC(Sc1ccc(OCCCC)cc1)C(=O)NO (centres unmarked) [Example 200, 2-(4-Butoxy-benzenesulfanyl)-octanoic acid hydroxyamide] | 37.9 |
| Ethanesulfonic acid 4(1-hydroxycarbamoyl-heptylsulfanyl)-hydroxyamide [Example 234] | 18.4 |
| 2,5-Dichloro-thiophene-3-sulfonic acid 4-(1-hydroxycarbamoyl-heptylsulfinyl)-hydroxyamide [Example 236] | 35 |
| 3-(1-Hydroxycarbamoyl-heptylsulfinyl)-benzoicacid hydroxyamide [Example 188] | 16.2 |
| 3-(1-Hydroxycarbamoyl-heptylsulfanyl)-benzoic acid hydroxyamide [Example 184] | 24.8 |

Same assay, conditions: Examples 169-240; read-out: TACE IC50

| IC50 [µM] | Compound |
| --- | --- |
| 0.0966 | CCCCCCC(Sc1ccc(NCCCN2CCOCC2)cc1)C(=O)NO (centres unmarked) [Example 225, 2-[4-(3-morpholin-4-yl-propylamino)-phenylsulfanyl]-octanoic acid hydroxyamide] |
| 0.895 | CCCCCCC(C(=O)NO)[S+]([O-])c1ccc(OC2CCN(C)C2)cc1 (centres unmarked) [Example 215, 2-[4-(1-Methyl-pyrrolidin-3-yloxy)-benzenesulfinyl]-octanoic acid hydroxyamide] |
| 0.212 | CCCCCCC(C(=O)NO)[S+]([O-])c1ccc(-c2ccc(Cl)s2)cc1 (centres unmarked) [Example 222, 2-[4-(5-Chloro-thiophen-2-yl)-benzenesulfinyl]-octanoic acid hydroxyamide] |
| 0.404 | CCCCCCC(C(=O)NO)S(=O)(=O)c1ccc(-c2ccc(Cl)s2)cc1 (centres unmarked) [Example 224, 2-[4-(5-Chloro-thiophen-2-yl)-benzenesulfonyl]-octanoic acid hydroxyamide] |
| 0.146 | CCCCCCC(C(=O)NO)[S+]([O-])c1ccc(-c2ccc(Cl)cc2)cc1 (centres unmarked) [Example 221, 2-(4'-Chloro-biphenyl-4-sulfinyl)-octanoic acid hydroxyamide] |
| 0.38 | CCCCCCC(C(=O)NO)S(=O)(=O)c1ccc(OC2CCN(C)C2)cc1 (centres unmarked) [Example 218, 2-[4-(1-Methyl-pyrrolidin-3-yloxy)-benzenesulfonyl]-octanoic acid hydroxyamide] |

Same assay, conditions: read-out: TACE % inhibition at 1 µM; 1 µM; Examples 169-240

| inhibition at 1 µM [%] | Compound |
| --- | --- |
| 114 | CCCCCCC(Sc1ccc(NCCCN2CCOCC2)cc1)C(=O)NO (centres unmarked) [Example 225, 2-[4-(3-morpholin-4-yl-propylamino)-phenylsulfanyl]-octanoic acid hydroxyamide] |
| 60.1 | CCCCCCC(C(=O)NO)[S+]([O-])c1ccc(OC2CCN(C)C2)cc1 (centres unmarked) [Example 215, 2-[4-(1-Methyl-pyrrolidin-3-yloxy)-benzenesulfinyl]-octanoic acid hydroxyamide] |
| 67.7 | CCCCCCC(C(=O)NO)S(=O)(=O)c1ccc(OCc2ccccc2)cc1 (centres unmarked) [Example 208, 2-(4-Benzyloxy-phenylsulfonyl)-octanoic acid hydroxyamide] |
| 20.7 | CCCCCCC(C(=O)NO)S(=O)(=O)c1ccc(OCCCc2ccccn2)cc1 (centres unmarked) [Example 211, 2-[4-(3-Pyridin-2-yl-propoxy)-benzenesulfonyl]-octanoic acid hydroxyamide] |
| -6.3 | CCCCCCC(C(=O)NO)[S+]([O-])c1ccc(OCCCc2ccccn2)cc1 (centres unmarked) [Example 207, 2-[4-(3-Pyridin-2-yl-propoxy)-benzenesulfinyl]-octanoic acid hydroxyamide] |
| 89.3 | CCCCCCC(C(=O)NO)[S+]([O-])c1ccc(-c2ccc(Cl)s2)cc1 (centres unmarked) [Example 222, 2-[4-(5-Chloro-thiophen-2-yl)-benzenesulfinyl]-octanoic acid hydroxyamide] |
| 75 | CCCCCCC(C(=O)NO)S(=O)(=O)c1ccc(-c2ccc(Cl)s2)cc1 (centres unmarked) [Example 224, 2-[4-(5-Chloro-thiophen-2-yl)-benzenesulfonyl]-octanoic acid hydroxyamide] |
| 7.3 | CCCCCCC(C(=O)NO)S(=O)(=O)c1ccc(OC(CC)CC)cc1 (centres unmarked) [Example 219, 2-[4-(1-Ethyl-propoxy)-benzenesulfonyl]-octanoic acid hydroxyamide] |
| 98.9 | CCCCCCC(C(=O)NO)[S+]([O-])c1ccc(-c2ccc(Cl)cc2)cc1 (centres unmarked) [Example 221, 2-(4'-Chloro-biphenyl-4-sulfinyl)-octanoic acid hydroxyamide] |
| 68.7 | CCCCCCC(C(=O)NO)S(=O)(=O)c1ccc(OC2CCN(C)C2)cc1 (centres unmarked) [Example 218, 2-[4-(1-Methyl-pyrrolidin-3-yloxy)-benzenesulfonyl]-octanoic acid hydroxyamide] |

Second part, the compound before the results:

| Compound | inhibition at 1 µM [%] |
| --- | --- |
| CCCCCCC(C(=O)NO)[S+]([O-])c1ccc(OCc2ccccc2)cc1 (centres unmarked) [Example 204, 2-(4-Benzyloxy-phenylsulfinyl)-octanoic acid hydroxyamide] | 7.75 |
| CCCCCCC(C(=O)NO)S(=O)(=O)c1ccc(OCCCC)cc1 (centres unmarked) [Example 209, 2-(4-Butoxy-benzenesulfonyl)-octanoic acid hydroxyamide] | 31.2 |
| CCCCCCC(C(=O)NO)[S+]([O-])c1ccc(OCCCC)cc1 (centres unmarked) [Example 205, 2-(4-Butoxy-benzenesulfinyl)-octanoic acid hydroxyamide] | 84 |
| CCCCCCC(Sc1ccc(OCCCCCO)cc1)C(=O)NO (centres unmarked) [Example 202, 2-[4-(5-Hydroxy-pentyloxy)-phenylsulfanyl]-octanoic acid hydroxyamide] | 10.6 |

Same assay, conditions: read-out: TACE % inhibition at 1 micromolar

| inhibition at 1 µM [%] | Compound |
| --- | --- |
| 25.4 | CCN1CCC(C(=O)NO)(S(=O)(=O)c2ccc(OC)cc2)CC1 [Example 95, 1-Ethyl-4-(4-methoxy-benzenesulfonyl)-piperidine-4-carboxylic acid hydroxyamide] |
| 7.7 | C=CCC(CC=C)(C(=O)NO)S(=O)(=O)c1ccc(OC)cc1 [Example 58, 2-allyl-2-(4-methoxy-benzenesulfonyl)-pent-4-enoic acid hydroxyamide] |
| 17.2 | COc1ccc(S(=O)(=O)C(C)(Cc2cccnc2)C(=O)NO)cc1 (centres unmarked) [Example 61, N-hydroxy-2-(4-methoxy-benzenesulfonyl)-2-methyl-3-pyridin-3-yl-propionamide] |
| 20.2 | COc1ccc(S(=O)(=O)C2(C(=O)NO)CCN(C)CC2)cc1 [Example 97, 1-Methyl-4-(4-methoxy-benzenesulfonyl)-piperidine-4-carboxylic acid hydroxyamide] |
| 39 | CCN(CC)CCOc1ccc(CC(C)(C(=O)NO)S(=O)(=O)c2ccc(OC)cc2)cc1 (centres unmarked) [Example 21, N-Hydroxy-2-(4-methoxy-benzenesulfonyl)-2-methyl-3-[4-(2-N,N-diethylamino-ethoxy)-phenyl]-propionamide] |
| 31 | COc1ccc(S(=O)(=O)C(C)(Cc2ccc(OCCN(C(C)C)C(C)C)cc2)C(=O)NO)cc1 (centres unmarked) [Example 20, N-Hydroxy-2-(4-methoxy-benzenesulfonyl)-2-methyl-3-[4-(2-N,N-diisopropylamino-ethoxy)-phenyl]-propionamide] |
| 47 | COc1ccc([S+]([O-])C(C(=O)NO)c2ccccc2)cc1 (centres unmarked) [Example 8, N-Hydroxy-2-(4-methoxy-benzenesulfinyl)-2-phenyl-acetamide] |
| 20.3 | COc1ccc(S(=O)(=O)C(Cc2ccccc2)C(=O)NO)cc1 (centres unmarked) [Example 9, N-Hydroxy-2-(4-methoxy-benzenesulfonyl)-3-phenyl-propionamide] |
| 15.5 | COc1ccc(CS(=O)(=O)C(C)(Cc2ccccc2)C(=O)NO)cc1 (centres unmarked) [Example 41, N-Hydroxy-2-(4-methoxy-phenylmethanesulfonyl)-2-methyl-3-phenyl propionic acid hydroxamide] |

| Compound | inhibition at 1 µM [%] |
| --- | --- |
| CCCCOc1ccc(S(=O)(=O)C2(C(=O)NO)CCN(Cc3ccc(F)cc3)CC2)cc1 [Example 100, 1-(4-Fluoro-benzyl)-4-(4-butoxy-benzenesulfonyl)-piperidine-4-carboxylic acid hydroxyamide] | 39.5 |

Same assay, conditions: read-out: TACE IC 50

| IC50 [µM] | Compound |
| --- | --- |
| 0.197 | COc1ccc(CN2CCC(C(=O)NO)(S(=O)(=O)c3ccc(OC)cc3)CC2)cc1 [Example 101, 4-(4-methoxy-benzenesulfonyl)-1-(4-methoxy-benzyl)-piperidine-4-carboxylic acid hydroxyamide] |
| 0.16 | COc1ccc(S(=O)(=O)C(Cc2ccc3ccccc3c2)C(=O)NO)cc1 (centres unmarked) [Example 40, N-Hydroxy-2-(4-methoxy-benzenesulfonyl)-3-naphthalen-2-yl-propionamide] |
| 0.669 | CCCCCCCCC(Cc1cccnc1)(C(=O)NO)S(=O)(=O)c1ccc(OC)cc1 (centres unmarked) [Example 62, 2-(4-Methoxy-benzenesulfonyl)-2-pyridin-3-ylmethyl-decanoic acid hydroxyamide] |
